According to ChEMBL document CHEMBL1141623 (Bioorg Med Chem Lett, 2008):

Experiments:
[1] = Stability in rat liver microsome after 60 mins; assay type: ADME; details: liver microsomes, read-out: Stability
[2] = Stability in rat liver S9 fraction after 60 mins; assay type: ADME, subcellular; details: read-out: Stability
[3] = molecular target: Sodium-dependent serotonin transporter (Homo sapiens, UniProt P31645); test: Inhibition of SERT mediated 5-hydroxytryptamine uptake
[4] = molecular target: Sodium-dependent noradrenaline transporter (Homo sapiens, UniProt P23975); test: Inhibition of NET mediated norepinephrine uptake
Chain of Sodium-dependent noradrenaline transporter (P23975 whole entry): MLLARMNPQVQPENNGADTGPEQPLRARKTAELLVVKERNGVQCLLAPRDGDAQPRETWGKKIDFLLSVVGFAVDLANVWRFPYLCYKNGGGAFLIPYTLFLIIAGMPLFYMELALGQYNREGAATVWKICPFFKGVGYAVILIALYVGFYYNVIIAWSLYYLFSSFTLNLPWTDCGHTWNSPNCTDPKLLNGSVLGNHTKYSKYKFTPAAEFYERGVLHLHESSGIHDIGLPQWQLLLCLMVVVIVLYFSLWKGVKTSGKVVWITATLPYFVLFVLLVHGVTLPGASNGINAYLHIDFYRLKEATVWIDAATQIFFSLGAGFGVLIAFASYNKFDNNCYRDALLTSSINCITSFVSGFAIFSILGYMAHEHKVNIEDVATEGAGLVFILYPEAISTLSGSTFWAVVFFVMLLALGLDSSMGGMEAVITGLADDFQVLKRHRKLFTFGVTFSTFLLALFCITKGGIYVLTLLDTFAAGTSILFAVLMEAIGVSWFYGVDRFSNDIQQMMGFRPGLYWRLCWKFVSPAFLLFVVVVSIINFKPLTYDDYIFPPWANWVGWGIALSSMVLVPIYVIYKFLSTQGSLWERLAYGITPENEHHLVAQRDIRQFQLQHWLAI

Mu-type opioid receptor = Mu-type opioid receptor (Homo sapiens, UniProt P35372); test: Binding affinity to mu opioid receptor
Chain of Mu-type opioid receptor (P35372 whole entry): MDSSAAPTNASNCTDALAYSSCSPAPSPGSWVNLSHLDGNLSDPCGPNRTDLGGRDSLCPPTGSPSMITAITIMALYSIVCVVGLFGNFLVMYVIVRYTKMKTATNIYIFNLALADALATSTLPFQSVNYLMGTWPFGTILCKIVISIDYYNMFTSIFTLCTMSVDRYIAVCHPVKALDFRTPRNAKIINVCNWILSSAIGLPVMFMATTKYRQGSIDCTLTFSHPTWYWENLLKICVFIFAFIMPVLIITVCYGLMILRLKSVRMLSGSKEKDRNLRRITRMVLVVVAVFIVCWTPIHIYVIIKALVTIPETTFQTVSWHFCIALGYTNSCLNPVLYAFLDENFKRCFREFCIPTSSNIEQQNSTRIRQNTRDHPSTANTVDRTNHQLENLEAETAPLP

[5] = Stability in human liver microsome after 60 mins; assay type: ADME; details: liver microsomes, read-out: Stability
[6] = Stability in human liver S9 fraction after 60 mins; assay type: ADME, subcellular; details: read-out: Stability
Rattus norvegicus [7] = test: Analgesic activity in iv dosed Sprague-Dawley rat assessed as duration of effect by tail-flick model of pain; assay type: functional
Rattus norvegicus [8] = test: Analgesic activity in iv dosed Sprague-Dawley rat by tail-flick model of pain; assay type: functional
Rattus norvegicus [9] = test: Toxicity in iv dosed Sprague-Dawley rat; assay type: organism-based; details: in vivo
[10] = Bioavailability in […] dosed Sprague-Dawley rat; assay type: ADME, organism-based; details: in vivo

Chain of Sodium-dependent serotonin transporter (P31645 whole entry): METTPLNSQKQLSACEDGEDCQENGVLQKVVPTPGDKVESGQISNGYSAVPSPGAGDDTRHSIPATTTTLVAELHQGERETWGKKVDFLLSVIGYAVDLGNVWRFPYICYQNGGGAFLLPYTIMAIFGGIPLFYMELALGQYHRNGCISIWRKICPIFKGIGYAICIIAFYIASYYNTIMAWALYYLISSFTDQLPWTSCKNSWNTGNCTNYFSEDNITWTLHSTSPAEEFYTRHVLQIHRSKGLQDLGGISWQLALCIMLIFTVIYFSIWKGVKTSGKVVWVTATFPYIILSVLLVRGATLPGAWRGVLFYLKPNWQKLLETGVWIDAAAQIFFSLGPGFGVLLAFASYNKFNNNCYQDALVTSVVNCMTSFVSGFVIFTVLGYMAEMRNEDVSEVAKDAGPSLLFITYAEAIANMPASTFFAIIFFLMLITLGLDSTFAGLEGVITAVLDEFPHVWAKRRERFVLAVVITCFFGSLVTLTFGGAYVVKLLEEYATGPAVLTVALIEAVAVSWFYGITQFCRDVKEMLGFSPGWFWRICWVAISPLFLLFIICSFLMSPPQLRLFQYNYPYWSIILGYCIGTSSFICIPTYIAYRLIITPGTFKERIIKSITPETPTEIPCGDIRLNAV

SMILES	remaining at 1 h [1]	remaining at 1 h [2]	IC50 [3]	IC50 [4]	IC50 (Mu-type opioid receptor)	remaining at 1 h [5]	remaining at 1 h [6]	Time (Rattus norvegicus [7])	ED50 (Rattus norvegicus [8])	Activity (Rattus norvegicus [9])	bioavailability [10]
CO[C@]1(c2cccc(C#N)c2)CCCC[C@@H]1CN(C)C	69%	83%	6240 nM	4.49 µM	> 10000 nM	89%	94%	–	–	–	–
CN(C)C[C@H]1CCCC[C@]1(OCC1CC1)c1cccc(O)c1	–	–	3670 nM	> 10 µM	130 nM	–	–	–	–	–	–
CNC[C@@H]1CCCC[C@@]1(OC)c1cccc(OC)c1	–	–	–	0.898 µM	> 10000 nM	–	–	27 min	3.1 mg/kg	–	–
CCCO[C@]1(c2cccc(OC)c2)CCCC[C@@H]1CN(C)C	–	–	25 nM	3.87 µM	7900 nM	–	–	–	–	–	–
CNC[C@H]1CCCC[C@]1(OC)c1cccc(OC)c1	–	–	–	> 10 µM	> 10000 nM	–	–	–	–	Toxic	–
COc1cccc([C@@]2(OCCCO)CCCC[C@@H]2CN(C)C)c1	–	–	1490 nM	3.86 µM	8000 nM	–	–	–	–	–	–
CN(C)C[C@H]1CCCC[C@]1(OCCO)c1cccc(O)c1	–	–	1500 nM	5.95 µM	190 nM	–	–	–	–	–	–
COc1cccc([C@@]2(OCCO)CCCC[C@@H]2CN(C)C)c1	–	–	> 10000 nM	> 10 µM	> 10000 nM	–	–	–	–	–	–
CCCCO[C@]1(c2cccc(OC)c2)CCCC[C@@H]1CN(C)C	3%	4%	110 nM	6.69 µM	6490 nM	9%	10%	–	–	–	–
CO[C@@]1(c2ccccc2)CCCC[C@H]1CN(C)C	–	–	3880 nM	1.56 µM	> 10000 nM	–	–	13 min	3.3 mg/kg	–	–
CCCCO[C@]1(c2cccc(O)c2)CCCC[C@@H]1CN(C)C	–	–	2740 nM	> 10 µM	97 nM	–	–	–	–	–	–
CO[C@]1(c2cccc(O)c2)CCCC[C@@H]1CN(C)C	88%	74%	10000 nM	0.525 µM	56 nM	104%	98%	–	–	–	–
CCCO[C@]1(c2cccc(O)c2)CCCC[C@@H]1CN(C)C	–	–	2800 nM	6.25 µM	190 nM	–	–	–	–	–	–
CCO[C@]1(c2cccc(O)c2)CCCC[C@@H]1CN(C)C	–	–	1420 nM	3.78 µM	130 nM	–	–	–	–	–	–
CCO[C@]1(c2cccc(OC)c2)CCCC[C@@H]1CN(C)C	–	–	181 nM	1.01 µM	> 10000 nM	–	–	–	–	–	–
COc1cccc([C@@]2(OCC3CC3)CCCC[C@@H]2CN(C)C)c1	3%	6%	25 nM	3.78 µM	7670 nM	29%	35%	–	–	–	–
CNC[C@@H]1CCCC[C@@]1(OC)c1cccc(O)c1	–	–	1050 nM	9 µM	84 nM	–	–	–	–	–	–
CNCC1CCCCC1(OC)c1cccc(OC)c1 (racemic)	31%	26%	–	3.87 µM	> 10000 nM	77%	76%	–	2.9 mg/kg	–	–
COc1cccc([C@@]2(OC)CCCC[C@@H]2CN(C)C)c1 (racemic)	17%	12%	–	0.161 µM	7870 nM	82%	85%	20 min	0.7 mg/kg	–	11%
CN(C)C[C@H]1CCCC[C@]1(O)c1cccc(O)c1 (racemic) [O-DESMETHYL TRAMADOL]	–	–	–	> 10 µM	–	–	–	2 min	–	–	–
COc1cccc(C2(O)CCCCC2CN(C)C)c1 (racemic) [TRAMADOL]	58%	56%	–	3.86 µM	–	96%	95%	69 min	11.3 mg/kg	–	36%
CO[C@]1(c2ccccc2)CCCC[C@@H]1CN(C)C (stereo in doubt; 14)	56%	61%	2530 nM	3.79 µM	4750 nM	96%	101%	–	–	–	–
CNC[C@H]1CCCC[C@]1(OC)c1cccc(O)c1 (stereo in doubt; 23)	86%	82%	6920 nM	2.25 µM	122 nM	103%	108%	–	–	–	–
CNC[C@H]1CCCC[C@]1(OC)c1cccc(O)c1 (stereo in doubt; 26)	–	–	5260 nM	> 10 µM	48 nM	–	–	–	–	–	–
CO[C@]1(c2ccccc2)CCCC[C@@H]1CN(C)C (stereo in doubt; 28)	–	–	2960 nM	1.52 µM	2590 nM	–	–	–	–	Toxic	–
